pIC50: −log10 of the molar value.

The first test deals with pyruvate phosphate dikinase (PPDK).
Experiment: not given
The settings on record: isolated enzyme; read-out: half maximal inhibitory concentration (IC50); cited from earlier work.
With `C/C=C(\C)c1cc(O)c(C)c2c1Oc1cc(O)cc(C)c1C(=O)O2` [unguinol], the pIC50 is 4.40.

For another test, the system named is PEP carboxylase from C4 plant Amaranthus viridis.
Experiment: not given
The conditions noted are these: cited from earlier work.
On to `O=c1c(O)c(-c2ccc(O)c(O)c2)oc2cc(O)cc(O)c12` [quercetin], for which the “inhibition of PEP carboxylase from Amaranthus viridis” value (“inhibition of PEP carboxylase” for short) is reported as “inhibited”. Consider `O=c1c(O)c(-c2ccc(O)c(O)c2)oc2cc(O)ccc12` [fisetin], for which the “inhibition of PEP carboxylase” value is recorded as “inhibited”.

As for `O=c1c(O)c(-c2ccc(O)cc2O)oc2cc(O)cc(O)c12` [morin], the “inhibition of PEP carboxylase” value is reported as “inhibited”. On to baicalein/baicalin, for which the “inhibition of PEP carboxylase” value is “inhibited”. As to `O=c1c(O)c(-c2cc(O)c(O)c(O)c2)oc2cc(O)cc(O)c12` [myricetin], the “inhibition of PEP carboxylase” value is “inhibited”. As for `O=c1c(O)c(-c2ccc(O)cc2)oc2cc(O)cc(O)c12` [kaempferol], the “inhibition of PEP carboxylase” value is reported as “inhibited”.

A further test has as its target T1, PEP carboxylase from F. trinervia (C4 PEPC) (Flaveria trinervia, UniProt P30694).
T1 construct: histidine tag; made in house; host or cells: E. coli
T1 sequence (P30694 1-966): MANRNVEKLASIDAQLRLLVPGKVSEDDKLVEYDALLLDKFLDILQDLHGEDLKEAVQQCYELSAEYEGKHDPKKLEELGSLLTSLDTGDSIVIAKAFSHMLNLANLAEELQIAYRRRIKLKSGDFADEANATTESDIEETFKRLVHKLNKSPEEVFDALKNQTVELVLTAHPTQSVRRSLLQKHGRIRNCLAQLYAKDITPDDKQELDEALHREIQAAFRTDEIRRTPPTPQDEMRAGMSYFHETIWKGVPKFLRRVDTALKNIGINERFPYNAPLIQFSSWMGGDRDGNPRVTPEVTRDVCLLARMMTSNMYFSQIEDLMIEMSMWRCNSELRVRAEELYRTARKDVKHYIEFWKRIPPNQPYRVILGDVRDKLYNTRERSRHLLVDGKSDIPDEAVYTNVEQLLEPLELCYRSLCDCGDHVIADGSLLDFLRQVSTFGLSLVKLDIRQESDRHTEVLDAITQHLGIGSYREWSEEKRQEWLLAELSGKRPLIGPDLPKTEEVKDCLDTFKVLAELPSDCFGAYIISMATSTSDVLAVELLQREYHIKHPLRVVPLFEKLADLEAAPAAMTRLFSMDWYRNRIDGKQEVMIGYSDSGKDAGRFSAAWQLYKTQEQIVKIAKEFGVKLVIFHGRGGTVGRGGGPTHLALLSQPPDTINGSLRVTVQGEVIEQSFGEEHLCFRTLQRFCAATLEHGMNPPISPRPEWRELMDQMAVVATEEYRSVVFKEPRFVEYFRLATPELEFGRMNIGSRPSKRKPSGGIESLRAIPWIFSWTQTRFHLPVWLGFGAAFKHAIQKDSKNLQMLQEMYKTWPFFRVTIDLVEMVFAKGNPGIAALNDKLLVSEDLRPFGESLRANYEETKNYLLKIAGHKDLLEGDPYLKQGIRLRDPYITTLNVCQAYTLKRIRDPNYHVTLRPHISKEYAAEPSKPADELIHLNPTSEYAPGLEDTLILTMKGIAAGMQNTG
The test can be described thus: Spectrophotometric coupled assay with malate dehydrogenase, C4 PEP carboxylase. Type of test: biochemical. The conditions noted are these: range of concentrations, triplicate; C3 PEPC activity compared at the C4 IC50 concentration (figure legend). From the text: How to determine the activity of a PEP carboxylase is well known in the art. E.g, the formation of oxaloacetate can be determined spectrophotometrically, e.g., in a malate dehydrogenase coupled system. The reaction velocity can be measured as a decrease in A340 resulting from the oxidation of NADH.
Inhibition of purified PEP carboxylases from F. pringlei and F. trinervia by compounds selected from the VDS was monitored by a spectrophotometric coupled assay with malate dehydrogenase which reduces the oxaloacetate formed by PEP carboxylase to malate. The simultaneous oxidation of NADH is followed at 340 nm with standard optical equipment. The concentration of the inhibitors selected from the VDS was varied in the coupled assay to determine the half maximal inhibitory concentration (IC50).
On to catechin, for which the “Inhibition of a C4-PEPC” value is recorded as “Inhibition”. On the same count and under the same terms, next, `O=C(/C=C/c1ccc(O)c(O)c1)c1ccc(O)cc1O` [butein]: “Selective inhibition”; `O=C(O)c1cc(/C=C/c2cc(O)ccc2O)ccc1O` [1-(3′-carboxy-4′-hydroxyphenyl)-2-(2,5-dihydroxyphenl(ethene)]: “Selective inhibition”.

Take `COc1cc2ncc(-c3ccc(O)c(O)c3)nc2cc1OC` [2-(3,4-Dihydroxyphenyl)-6,7-dimethoxyquinoxaline]: the “Inhibition of a C4-PEPC” value is recorded as “Inhibition”.

Values taken from patent US10188107B2 (Heinrich Heine Universität Düsseldorf, priority 2013, dated 2019).
